The target in one assay is T1, Btk (Homo sapiens, UniProt Q06187).
T1 construct: purified from insect cells as a full-length construct containing a N-terminal 6X-His tag; His6 (N); made in house; host or cells: insect cells (Method C)
The assay can be described thus: Btk in vitro inhibitory activity (one of Method A TR-FRET, Method B electrophoretic mobility shift, Method C radiometric filter binding). Format: biochemical. The protocol:
Example 62a: Btk In Vitro Inhibitory Activity (Method A)
Btk kinase activity is determined using a time-resolved fluorescence resonance energy transfer (TR-FRET) methodology. Measurements are performed in a reaction volume of 50 μL using 96-well assay plates. […] The reaction is quenched by the addition of 1.2 equivalents of EDTA (relative to divalent cation) in 25 μL of 1× Lance buffer (Perkin-Elmer). Streptavidin-APC (Perkin-Elmer) and Eu-labeled p-Tyr100 antibody (Perkin-Elmer) in 1× Lance buffer are added in a 25 μL volume to give final concentrations of 100 nM and 2.5 nM, respectively, and the mixture is allowed to incubate for one hour. The TR-FRET signal is measured on a multimode plate reader with an excitation wavelength (λEx) of 330 nm and detection wavelengths (λEm) of 615 and 665 nm. Activity is determined by the ratio of the fluorescence at 665 nm to that at 615 nm. For each compound, enzyme activity is measured at various concentrations of compound. Negative control reactions are performed in the absence of inhibitor in replicates of six, and two no-enzyme controls are used to determine baseline fluorescence levels. Inhibition constants, Ki(app), were obtained using the program BatchKi (Kuzmic et al. (2000), Anal. Biochem. 286:45-50). IC50s are obtained according to the equation:
IC50={Ki(app)/(1+[ATP]/Km^ATP)}+[E]total/2;
For all kinases, [ATP]=Km^ATP, [Btk]total=0.5 nM and [Lck]total=6 nM.
Example 62b: Btk In Vitro Inhibitory Activity (Method B)
Kinase activity is measured in vitro using electrophoretic mobility shift assay. The kinase reactions are assembled in a total volume of 25 μL in 384 well plates. The reactions comprise: BTK enzyme (1 nM, N-terminal His6-tagged, recombinant, full-length, human BTK purified from baculovirus Sf21 insect cell system, 293HEK, or other suitable source), inhibitor, ATP, fluorescently labeled peptide substrate (1 μM, FAM-GEEPLYWSFPAKKK-NH2) in a reaction buffer composed of 100 mM HEPES, pH7.5, 5 mM MgCl2 1 mM DTT, 0.1% bovine serum albumin, 0.01% Triton X-100, and 1% DMSO. The reaction is incubated and is quenched by the addition of termination buffer (100 mM HEPES, pH 7.5, 0.01% Triton X-100, 30 mM EDTA). The terminated reactions are analyzed using a 12 channel LabChip® 3000 microfluidic detection instrument (Caliper Life Sciences). The enzymatic phosphorylation of the peptide results in a change in net charge, enabling electrophoretic separation of product from substrate peptide. As substrate and product peptides are separated, two peaks of fluorescence are observed. Change in the relative fluorescence intensity of the substrate and product peaks is the parameter measured, reflecting enzyme activity. In the presence of an inhibitor, the ratio between product and substrate is altered: the signal of the product decreases, while the signal of the substrate increases.
Activity in each sample is determined as the product to sum ratio (PSR):P/(S+P), where P is the peak height of the product peptide and S is the peak height of the substrate peptide. For each compound, enzyme activity is measured at various concentrations (12 concentrations of compound spaced by 3× dilution intervals). Negative control samples (0%—inhibition in the absence of inhibitor) and positive control samples (100%—inhibition, in the presence of 20 mM EDTA) are assembled in replicates of four and are used to calculate %—inhibition values for each inhibitor at each concentration. Percent inhibition (Pinh) is determined using following equation:
Pinh=(PSR0%−PSRinh)/(PSR0%−PSR100%)*100, where PSRinh is the product sum ratio in the presence of inhibitor, PSR0% is the average product sum ration in the absence of inhibitor and PSR100% is the average product sum ratio in 100%—inhibition control samples.
The IC50 values of inhibitors are determined by 4 parameter sigmoidal dose-response model fitting of the inhibition curves (Pinh versus inhibitor concentration) using XLfit 4 software. […]
For orientation: Mobility shift assays separate free from complexed probe on a gel.

In a further assay the target is T2, TEC (Homo sapiens, UniProt P42680).
T2 sequence (P42680 1-631): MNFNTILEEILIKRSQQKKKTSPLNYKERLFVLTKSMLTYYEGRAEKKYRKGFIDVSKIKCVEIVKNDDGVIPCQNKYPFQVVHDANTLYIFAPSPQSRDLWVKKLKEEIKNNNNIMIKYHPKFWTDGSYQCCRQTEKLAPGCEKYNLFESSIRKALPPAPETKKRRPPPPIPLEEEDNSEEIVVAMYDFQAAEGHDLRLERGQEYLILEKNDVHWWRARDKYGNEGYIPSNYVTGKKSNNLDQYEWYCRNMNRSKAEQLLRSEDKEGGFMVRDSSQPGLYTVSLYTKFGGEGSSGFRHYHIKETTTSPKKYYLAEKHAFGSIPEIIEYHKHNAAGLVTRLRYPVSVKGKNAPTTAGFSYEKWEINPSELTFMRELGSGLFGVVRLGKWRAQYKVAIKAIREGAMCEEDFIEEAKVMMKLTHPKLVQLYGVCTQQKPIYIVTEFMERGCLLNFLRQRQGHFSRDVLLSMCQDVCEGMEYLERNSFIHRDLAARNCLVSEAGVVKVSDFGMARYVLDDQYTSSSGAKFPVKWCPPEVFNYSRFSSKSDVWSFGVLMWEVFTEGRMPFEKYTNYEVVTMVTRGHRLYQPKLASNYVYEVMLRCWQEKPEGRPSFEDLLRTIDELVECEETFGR
The assay can be described thus: Inhibition of a panel of kinases (in vitro HotSpot kinase assay, 33P-ATP, 1 μM ATP). The settings on record: for IC50: HotSpot kinase assay, 1 μM ATP; for TEC/Btk: ratio of TEC IC50 to Btk IC50 (selectivity). It is filed as biochemical. The procedure: Example 63: Inhibition of a Panel of Kinases The degree of inhibition of a panel of kinases is determined using the in vitro HotSpot kinase assay (purified enzymes, ^33P-ATP, an appropriate substrate and 1 μM ATP).

The mark [1] stands for this setting: wild-type Btk, read-out: Btk-WT IC50.

Like-named read-outs stand apart in the source and are kept apart here. Where only a bound is given, the exact number is not on record here.

T1 sequence (Q06187 whole entry): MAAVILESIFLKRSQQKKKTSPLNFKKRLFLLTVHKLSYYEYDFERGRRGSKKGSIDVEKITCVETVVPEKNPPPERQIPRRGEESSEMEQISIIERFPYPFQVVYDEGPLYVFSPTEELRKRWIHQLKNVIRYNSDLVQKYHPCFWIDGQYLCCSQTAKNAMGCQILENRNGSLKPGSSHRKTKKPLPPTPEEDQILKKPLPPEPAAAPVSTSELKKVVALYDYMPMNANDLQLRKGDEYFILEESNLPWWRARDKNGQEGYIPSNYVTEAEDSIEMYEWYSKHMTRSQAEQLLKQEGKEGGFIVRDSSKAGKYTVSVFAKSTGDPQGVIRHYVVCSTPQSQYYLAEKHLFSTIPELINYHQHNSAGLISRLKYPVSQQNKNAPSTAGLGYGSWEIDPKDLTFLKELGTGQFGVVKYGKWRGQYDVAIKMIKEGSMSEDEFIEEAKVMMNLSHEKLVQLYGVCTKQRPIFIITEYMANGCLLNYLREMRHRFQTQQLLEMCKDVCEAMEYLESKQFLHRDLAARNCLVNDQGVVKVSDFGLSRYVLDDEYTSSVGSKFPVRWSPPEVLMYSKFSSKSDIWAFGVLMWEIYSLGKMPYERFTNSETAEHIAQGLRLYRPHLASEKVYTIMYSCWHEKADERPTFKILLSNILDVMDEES

Regarding `C[C@@H]1[C@H](Nc2n[nH]c3nccc(-c4ccc(CNC(=O)c5noc(C(C)(C)C)n5)c(F)c4)c23)CCCN1C(=O)CC#N` [Example 139, 5-tert-butyl-N-{[4-(3-{[(2R,3R)-1-(2-cyanoacetyl)-2-methylpiperidin-3-yl]amino}-1H-pyrazolo[3,4-b]pyridin-4-yl)-2-fluorophenyl]methyl}-1,2,4-oxadiazole-3-carboxamide], the IC50 at Btk (setting [1]) was 46.4 nM. Further, on TEC, the IC50 was 5760 nM and the TEC/Btk was 124.

As for `CC(=O)N[C@@H]1CCN(c2n[nH]c3nccc(-c4ccc(CNC(=O)c5ccc(C(C)(C)O)cc5F)c(F)c4)c23)C1` [Example 423, N-[(4-{3-[(3R)-3-acetamidopyrrolidin-1-yl]-1H-pyrazolo[3,4-b]pyridin-4-yl}-2-fluorophenyl)methyl]-2-fluoro-4-(2-hydroxypropan-2-yl)benzamide], the half-maximal inhibitory concentration (IC50) was 50.5 nM at Btk (setting [1]) and 3900 nM against TEC.

As for `C[C@@H]1[C@H](Nc2n[nH]c3nccc(-c4ccc(CNC(=O)c5noc(C(C)(C)C)n5)c(F)c4)c23)CCCN1S(=O)(=O)C1CC1` [Example 141, 5-tert-butyl-N-{[4-(3-{[(2R,3R)-1-(cyclopropanesulfonyl)-2-methylpiperidin-3-yl]amino}-1H-pyrazolo[3,4-b]pyridin-4-yl)-2-fluorophenyl]methyl}-1,2,4-oxadiazole-3-carboxamide], the IC50 at Btk (setting [1]) amounted to 30 nM. At TEC, half-maximal inhibition (IC50) was put at 3050 nM and the TEC/Btk worked out at 102.

`C[C@@H]1[C@H](Nc2n[nH]c3nccc(-c4ccc(CNC(=O)c5noc(C(C)(C)C)n5)c(F)c4)c23)CCCN1C(=O)NCC(F)(F)F` [Example 137, (2R,3R)-3-{[4-(4-{[(5-tert-butyl-1,2,4-oxadiazol-3-yl)formamido]methyl}-3-fluorophenyl)-1H-pyrazolo[3,4-b]pyridin-3-yl]amino}-2-methyl-N-(2,2,2-trifluoroethyl)piperidine-1-carboxamide]: the IC50 at Btk (setting [1]) and on TEC was more than 10000 nM each time.

For the compound `CCc1nc(C(=O)NCc2ccc(-c3ccnc4[nH]nc(N[C@@H]5CCNC5)c34)cc2F)no1` [Example 54], the IC50 on Btk (setting [1]) and at TEC was more than 10000 nM throughout.

On to `CC(C)(C)c1ccc(C(=O)NCc2ccc(-c3ccnc4[nH]nc(N[C@H]5CC[C@H](O)CC5)c34)cc2F)cc1` [Compound 12, 4-tert-butyl-N-{[2-fluoro-4-(3-{[(1r,4r)-4-hydroxycyclohexyl]amino}-1H-pyrazolo[3,4-b]pyridin-4-yl)phenyl]methyl}benzamide], for which the IC50 on Btk (setting [1]) came to 879 nM. The TEC/Btk at TEC was determined as 11.

Turning to `C[C@@H]1[C@H](Nc2n[nH]c3nccc(-c4ccc(CNC(=O)c5noc(C(C)(C)C)n5)c(F)c4)c23)CCCN1CC#N` [Example 142, 5-tert-butyl-N-{[4-(3-{[(2R,3R)-1-(cyanomethyl)-2-methylpiperidin-3-yl]amino}-1H-pyrazolo[3,4-b]pyridin-4-yl)-2-fluorophenyl]methyl}-1,2,4-oxadiazole-3-carboxamide], the IC50 at Btk (setting [1]) came to 21.2 nM. Also, on TEC, half-maximal inhibition (IC50) required 4170 nM and the TEC/Btk turned out to be 197.

With `CC(C)(O)c1ccc(C(=O)NCc2ccc(-c3ccnc4[nH]nc(N[C@H]5CC[C@H](O)CC5)c34)cc2F)cc1` [Compound 26, N-{[2-fluoro-4-(3-{[(1r,4r)-4-hydroxycyclohexyl]amino}-1H-pyrazolo[3,4-b]pyridin-4-yl)phenyl]methyl}-4-(2-hydroxypropan-2-yl)benzamide], the IC50 at Btk (setting [1]) turned out to be 932 nM. On TEC, the IC50 is more than 10000 nM and the TEC/Btk is listed as more than 100.

`C[C@@H]1[C@H](Nc2n[nH]c3nccc(-c4ccc(CNC(=O)c5noc(C(C)(C)C)n5)c(F)c4)c23)CCCN1C(=O)N1CCCC1` [Example 136, 5-tert-butyl-N-{[2-fluoro-4-(3-{[(2R,3R)-2-methyl-1-(pyrrolidine-1-carbonyl)piperidin-3-yl]amino}-1H-pyraozlo[3,4-b]pyridin-4-yl)phenyl]methyl}-1,2,4-oxadiazole-3-carboxamide]: at Btk (setting [1]), the IC50 came to 129 nM. Also, on TEC, the IC50 is 7930 nM and the TEC/Btk is on record as 61.

As for `C[C@@H](NC(=O)c1noc(C(C)(C)C)n1)c1ccc(-c2ccnc3[nH]nc(N[C@@H]4CCN(C=O)C4)c23)cc1` [Example 99, 5-tert-butyl-N-[(1R)-1-[4-(3-{[(3R)-1-formylpyrrolidin-3-yl]amino}-1H-pyrazolo[3,4-b]pyridin-4-yl)phenyl]ethyl]-1,2,4-oxadiazole-3-carboxamide], the IC50 was less than 10 nM on Btk (method is one of A, B or C, not stated which, read-out: IC50 values against Btk); 4.46 nM at Btk (setting [1]); 1430 nM against TEC. Besides, the TEC/Btk on TEC was 321.

In the case of `C[C@H](NC(=O)c1ccc(C(C)(C)C)cc1)c1ccc(-c2ccnc3[nH]nc(N[C@@H]4CCNC4)c23)cc1` [Example 91, 4-tert-butyl-N-[(1S)-1-[4-(3-{[(3R)-pyrrolidin-3-yl]amino}-1H-pyrazolo[3,4-b]pyridin-4-yl)phenyl]ethyl]benzamide], the IC50 at Btk (setting [1]) and against TEC was more than 10000 nM in each case.

One may read the IC50 as the concentration that gives 50% inhibition.

Values taken from patent US20180194762A1 (Pharmacyclics LLC, priority 2017, published 2018).
